Series [1] concerns the target T1, FLT3 receptor (MV4-11 cell line bearing an FLT3ITD mutant) (Homo sapiens, UniProt P36888, INS600HVDFREYEYD).
T1 construct: MV4-11 cell line, which line is established from a leukaemia of constitutively active AML type bearing an FLT3ITD mutant; endogenous in cells; host or cells: MV4-11
T1 sequence (P36888 with tags, fused parts or gaps INS600HVDFREYEYD): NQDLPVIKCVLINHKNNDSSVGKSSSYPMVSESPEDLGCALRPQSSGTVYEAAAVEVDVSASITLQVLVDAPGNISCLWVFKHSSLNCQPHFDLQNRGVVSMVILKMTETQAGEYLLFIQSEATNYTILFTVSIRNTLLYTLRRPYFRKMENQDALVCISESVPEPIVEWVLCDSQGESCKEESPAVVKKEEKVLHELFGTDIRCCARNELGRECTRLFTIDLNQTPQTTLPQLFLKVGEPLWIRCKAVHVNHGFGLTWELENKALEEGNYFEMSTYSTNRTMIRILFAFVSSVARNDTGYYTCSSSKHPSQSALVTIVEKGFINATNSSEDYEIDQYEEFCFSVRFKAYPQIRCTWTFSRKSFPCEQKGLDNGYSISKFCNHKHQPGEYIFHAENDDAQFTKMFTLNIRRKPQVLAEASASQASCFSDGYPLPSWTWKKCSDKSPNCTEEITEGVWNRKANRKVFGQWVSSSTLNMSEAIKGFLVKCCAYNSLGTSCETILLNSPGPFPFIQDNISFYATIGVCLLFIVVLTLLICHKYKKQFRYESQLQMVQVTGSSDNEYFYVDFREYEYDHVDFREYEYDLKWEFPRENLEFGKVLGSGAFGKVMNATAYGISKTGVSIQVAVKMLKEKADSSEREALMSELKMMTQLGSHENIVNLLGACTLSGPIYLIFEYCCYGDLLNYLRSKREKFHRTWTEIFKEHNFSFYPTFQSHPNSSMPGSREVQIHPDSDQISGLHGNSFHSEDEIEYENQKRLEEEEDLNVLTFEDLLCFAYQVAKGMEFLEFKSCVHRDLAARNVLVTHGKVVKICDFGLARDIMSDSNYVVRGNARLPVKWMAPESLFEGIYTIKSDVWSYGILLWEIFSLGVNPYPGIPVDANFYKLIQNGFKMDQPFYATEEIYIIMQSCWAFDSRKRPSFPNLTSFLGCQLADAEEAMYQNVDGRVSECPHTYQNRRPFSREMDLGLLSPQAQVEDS
The series can be described thus: Inhibition of FLT3 receptor tyrosine kinase activity: proliferation of MV4-11 cells (CellTiter-Glo, 72 h). Format: cell-based. The conditions noted are these: 72 hours incubation, read-out: IC50 (concentration that inhibits 50% of the proliferation of the MV4-11 cells). The procedure:
Measurement of Inhibition of the Tyrosine Kinase Activity of the FLT3 Receptor
The inhibitory effect of the compounds according to the invention towards the tyrosine kinase activity of the FLT3 receptor was evaluated on an MV4-11 cell line, which line is established from a leukaemia of constitutively active AML type bearing an FLT3ITD mutant. The inhibitory activity is correlated to the inhibition of cell growth, according to the protocols described by Spiekermann, K. et al., Blood, 2003, 101, (4) 1494-1504 and O'Farrell, A.-M. et al., Blood, 2003, 101, (9) 3597-3605.
(§1) MV4-11 cells are washed with PBS buffer and inoculated in 96-well plates, at a density of 1×10^5 cells/ml (100 μL per well), in RPMI 1640 containing 10% FCS, in the presence or absence of the test compounds. After incubation for 72 hours, the viable cells are quantified by measuring the cellular ATP by means of the CellTiter-Glo® kit (Promega, Cat G7571). The cells are treated according to the instructions given by the kit manufacturer, and the luminescence is measured using a Luminoskan (Ascent, Labsystem) with the following parameters: measurement: single; integration time: 1000 ms, lag time: 5 s.
The inhibitory activity with respect to the FLT3 receptor is given by the concentration that inhibits 50% of the proliferation of the MV4-11 cells.
A general note: ATP-based viability assays read luminescence as a measure of living cells.

In series [2] the target is fusion protein FIP1L1-PDGF-Rα (EOL-1 cell line) (Homo sapiens, UniProt P16234). The series can be described thus: Inhibition of PDGF alpha receptor tyrosine kinase activity: proliferation of EOL-1 cells (CellTiter-Glo, 72 h). Type of series: cell-based. The procedure: Measurement of Inhibition of the Tyrosine Kinase Activity of the PDGF Alpha Receptor: The inhibitory effect of the compounds according to the invention towards the tyrosine kinase activity of the PDGF alpha receptor was evaluated on the EOL-1 cell line, which line is established from a leukaemia of constitutively active chronic eosinophilic leukaemia (CEL) type. The EOL-1 line has been described as expressing the fusion protein FIP1L1-PDGF-Rα and is sensitive to kinase inhibitors in proliferation tests (Cools J. et al., Blood 2004, 103, […]). The inhibitory activity is correlated to the inhibition of cell growth. […] After incubation for 72 hours, the viable cells are quantified by measuring the cellular ATP by means of the CellTiter-Glo® kit (Promega, Cat G7571). The cells are treated according to the instructions given by the kit manufacturer, and the luminescence is measured using a Luminoskan (Ascent, Labsystem) with the following parameters: measurement: single; integration time: 1000 ms, lag time: 5 s. It is thus seen that the compounds according to the invention have inhibitory activity on the tyrosine kinase activity of PDGF-Rα. This activity is given by the concentration that inhibits 50% of the proliferation of the EOL-1 cells.

The target in series [3] is T2, fusion protein Tel/PDGF-Rβ (BaF3 Tel/PDGF cells) (Homo sapiens, UniProt P09619).
T2 construct: the transmembrane and intracellular part of the PDGF-Rβ receptor; N-terminal part of the Tel transcription factor (ETV6); expressed in transfected cells; host or cells: murine haematopoietic cell line BaF/3; the other entry of the earlier key: ETV6 (P41212, Transcription factor ETV6)
Kind of series: Inhibition of PDGF-Rβ tyrosine kinase activity: proliferation of BaF3 Tel/PDGF cells (CellTiter-Glo, 72 h). Type of series: cell-based, murine. The conditions noted are these: 72 hours incubation, read-out: IC50 (concentration that inhibits 50% of the proliferation of the BaF3 Tel/PDGF cells). The procedure: Measurement of Inhibition of the Tyrosine Kinase Activity of the PDGF Beta (PDGF-Rβ) (Baf-3 tel/PDGFIRβ) Receptor:
This test consists in evaluating the effects of the compounds on the tyrosine kinase activity of the PDGF beta receptor.
The inhibitory effect of the compounds according to the invention towards the tyrosine kinase activity of the PDGF-R receptor was evaluated on the murine haematopoietic cell line BaF/3 transfected with a plasmid coding for the fusion protein Tel/PDGF-Rβ. This fusion protein is found in chronic myelomonocytic myeloid leukaemias (CMML). It comprises the N-terminal part of the Tel transcription factor and the transmembrane and intracellular part of the PDGF-Rβ receptor. This fusion protein is present in dimerized form (presence of an oligomerization domain in the N-terminal part of Tel) and, as a result, leads to constitutive activity of the kinase domain of PDGF-Rβ. This line BaF3 Tel/PDGF has been described in the literature several times and especially, in detailed manner, in the article by M. Carroll et al., PNAS, 1996, 93, 14845-14850.
as §1, with “The BaF3 Tel/PDGF” for “MV4-11”, “phosphate” for “PBS”, “5×10^4” for “1×10^5”, “[…]” for “μL”
It is thus seen that the compounds according to the invention have inhibitory activity on the tyrosine kinase activity of PDGF-Rβ. This activity is given by the concentration that inhibits 50% of the proliferation of the BaF3 Tel/PDGF cells (IC50).

Setting [4] is: read-out: IC50 (concentration that inhibits 50% of the proliferation of the EOL-1 cells), 72 hours incubation.
[5] abbreviates: 72 hours incubation, read-out: IC50 (concentration that inhibits 50% of the proliferation of the EOL-1 cells).

Molecules are shown by their SMILES. Where two headings read alike, the source gives them in different places.

As usually defined, the melting point is the temperature of the solid-liquid transition.

Sequence of fusion protein FIP1L1-PDGF-Rα (EOL-1 cell line) (P16234 579-1089, change not shown): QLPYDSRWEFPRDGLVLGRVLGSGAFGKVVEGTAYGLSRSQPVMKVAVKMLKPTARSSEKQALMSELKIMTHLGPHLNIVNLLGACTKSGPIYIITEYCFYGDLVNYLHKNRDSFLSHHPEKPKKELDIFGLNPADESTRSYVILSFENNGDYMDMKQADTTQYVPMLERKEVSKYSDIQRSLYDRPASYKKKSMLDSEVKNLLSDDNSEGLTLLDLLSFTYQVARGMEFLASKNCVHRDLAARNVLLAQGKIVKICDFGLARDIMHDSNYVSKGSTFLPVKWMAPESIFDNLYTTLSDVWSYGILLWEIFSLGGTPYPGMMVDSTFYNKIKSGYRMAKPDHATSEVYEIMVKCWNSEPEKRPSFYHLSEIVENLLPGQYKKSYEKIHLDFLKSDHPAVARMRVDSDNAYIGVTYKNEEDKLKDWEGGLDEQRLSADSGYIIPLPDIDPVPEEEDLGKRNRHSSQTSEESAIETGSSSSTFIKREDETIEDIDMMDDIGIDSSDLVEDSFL
Sequence of fusion protein FIP1L1-PDGF-Rα (EOL-1 cell line) (Q6UN15 1-339 partner): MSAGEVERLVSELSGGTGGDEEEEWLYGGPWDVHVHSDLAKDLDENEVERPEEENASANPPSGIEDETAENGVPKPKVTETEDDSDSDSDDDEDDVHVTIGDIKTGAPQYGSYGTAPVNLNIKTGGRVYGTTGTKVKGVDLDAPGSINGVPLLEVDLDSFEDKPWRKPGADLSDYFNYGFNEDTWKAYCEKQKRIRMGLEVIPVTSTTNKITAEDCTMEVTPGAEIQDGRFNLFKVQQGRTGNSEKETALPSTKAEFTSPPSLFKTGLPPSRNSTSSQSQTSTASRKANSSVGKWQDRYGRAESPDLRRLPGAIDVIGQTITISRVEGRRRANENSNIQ
T2 sequence (P09619 with tags, fused parts or gaps): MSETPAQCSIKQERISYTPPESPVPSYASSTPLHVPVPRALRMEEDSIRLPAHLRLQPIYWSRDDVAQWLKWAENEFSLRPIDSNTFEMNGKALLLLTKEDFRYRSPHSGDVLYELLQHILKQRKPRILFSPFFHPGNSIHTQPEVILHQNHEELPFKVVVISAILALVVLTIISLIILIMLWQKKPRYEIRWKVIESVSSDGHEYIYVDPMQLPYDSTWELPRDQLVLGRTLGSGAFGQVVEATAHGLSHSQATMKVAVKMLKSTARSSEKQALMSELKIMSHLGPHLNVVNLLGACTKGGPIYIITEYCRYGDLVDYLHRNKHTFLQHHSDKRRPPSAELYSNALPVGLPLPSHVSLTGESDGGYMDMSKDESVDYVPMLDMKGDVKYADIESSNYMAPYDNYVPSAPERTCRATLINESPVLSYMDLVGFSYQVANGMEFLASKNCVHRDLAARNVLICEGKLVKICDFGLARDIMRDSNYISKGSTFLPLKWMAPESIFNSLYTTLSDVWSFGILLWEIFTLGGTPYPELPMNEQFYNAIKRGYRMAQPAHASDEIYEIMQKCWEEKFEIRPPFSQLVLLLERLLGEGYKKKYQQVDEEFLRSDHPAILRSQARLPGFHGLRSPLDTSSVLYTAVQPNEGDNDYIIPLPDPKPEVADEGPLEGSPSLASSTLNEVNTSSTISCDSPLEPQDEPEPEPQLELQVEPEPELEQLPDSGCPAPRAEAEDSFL

For the compound `CCn1c(N)c(C(=O)NC)c(=O)c2ccc(-c3ccc(CC(=O)Nc4cccnc4)cc3)nc21` [compound 3, 2-amino-1-ethyl-N-methyl-4-oxo-7-{4-[2-oxo-2-(pyrid-3-ylamino)ethyl]-phenyl}-1,4-dihydro-1,8-naphthyridine-3-carboxamide], the IC50 in series [1] was 330 nM.

For `CCn1c(N)c(C(=O)NC)c(=O)c2ccc(-c3ccc(CC(=O)Nc4ccccn4)cc3)nc21` [compound 4, 2-amino-1-ethyl-N-methyl-4-oxo-7-{4-[2-oxo-2-(pyrid-2-ylamino)ethyl]-phenyl}-1,4-dihydro-1,8-naphthyridine-3-carboxamide], the IC50 in series [1] is 210 nM.

In turn, `CCn1c(N)c(C(=O)NC)c(=O)c2ccc(-c3ccc(CC(=O)Nc4ccccc4Cl)cc3)nc21` [compound 5, 2-amino-7-(4-{2-[(2-chlorophenyl)amino]-2-oxoethyl}phenyl)-1-ethyl-N-methyl-4-oxo-1,4-dihydro-1,8-naphthyridine-3-carboxamide] came in with a melting point above 260 °C. Also, the IC50 in series [2] (setting [4]) was found to be 1.6 nM. Also, in series [1], the IC50 worked out at 190 nM.

`CCn1c(N)c(C(=O)NC)c(=O)c2ccc(-c3ccc(CC(=O)Nc4cc(F)cc(F)c4)cc3)nc21` [compound 6, 2-amino-7-(4-{2-[(3,5-difluorophenyl)amino]-2-oxoethyl}phenyl)-1-ethyl-N-methyl-4-oxo-1,4-dihydro-1,8-naphthyridine-3-carboxamide] returned a melting point above 260 °C. Further, the IC50 in series [2] (setting [4]) is 0.57 nM. Further, the IC50 in series [3] is 11 nM. The IC50 in series [1] is 100 nM.

On to `CCN1CCC[C@@H]1CNC(=O)Cc1ccc(-c2ccc3c(=O)c(C(=O)NC)c(N)n(CC)c3n2)cc1` [compound 14, 2-amino-1-ethyl-7-{4-[2-({[(2R)-1-ethylpyrrolidin-2-yl]methyl}amino)-2-oxoethyl]phenyl}-N-methyl-4-oxo-1,4-dihydro-1,8-naphthyridine-3-carboxamide], for which the melting point was 270 °C. In series [3], the IC50 is 11 nM. Moreover, in series [1], the IC50 is 340 nM.

For `CCn1c(N)c(C(=O)NC)c(=O)c2ccc(-c3ccc(CC(=O)Nc4ccncn4)cc3)nc21` [compound 16, 2-amino-1-ethyl-N-methyl-4-oxo-7-{4-[2-oxo-2-(pyrimidin-4-ylamino)-ethyl]phenyl}-1,4-dihydro-1,8-naphthyridine-3-carboxamide], the melting point was above 280 °C. For the same compound, the IC50 in series [1] is 182 nM.

In the case of `CCn1c(N)c(C(=O)NC)c(=O)c2ccc(-c3ccc(CC(=O)Nc4ccccn4)cn3)nc21` [compound 19, 2-amino-1-ethyl-N-methyl-4-oxo-7-{5-[2-oxo-2-(pyrid-2-ylamino)-ethyl]pyrid-2-yl}-1,4-dihydro-1,8-naphthyridine-3-carboxamide], the IC50 in series [2] (setting [4]) was found to be 0.4 nM; in series [3], 27 nM; in series [1] it was 100 nM.

Consider `CCN1CCOCC1CNC(=O)Cc1ccc(-c2ccc3c(=O)c(C(=O)NC)c(N)n(CC)c3n2)cc1` (stereo not drawn) [compound 22, 2-amino-1-ethyl-7-[4-(2-{[(4-ethylmorpholin-3-yl)methyl]amino}-2-oxoethyl)phenyl]-N-methyl-4-oxo-1,4-dihydro-1,8-naphthyridine-3-carboxamide], for which the results for the IC50 in series [3] and in series [1] were 0.07 nM and 130 nM, respectively.

Turning to `CCN1CCCC1CNC(=O)Cc1csc(-c2ccc3c(=O)c(C(=O)NC)c(N)n(CC)c3n2)n1` (stereo not drawn) [compound 43, 2-amino-1-ethyl-7-[4-(2-{[(1-ethylpyrrolidin-2-yl)methyl]amino}-2-oxoethyl)-1,3-thiazol-2-yl]-N-methyl-4-oxo-1,4-dihydro-1,8-naphthyridine-3-carboxamide], the IC50 in series [2] (setting [5]) worked out at 29.7 nM.

`CCN1CCCC1CNC(=O)Cc1ccc(-c2ccc3c(=O)c(C(=O)NC)c(N)n(C4CCCC4)c3n2)cc1` (stereo not drawn) [compound 50, 2-amino-1-cyclopentyl-7-[4-(2-{[(1-ethylpyrrolidin-2-yl)methyl]amino}-2-oxoethyl)phenyl]-N-methyl-4-oxo-1,4-dihydro-1,8-naphthyridine-3-carboxamide] had a melting point of 222 °C. For the same compound, the IC50 in series [2] (setting [4]) was determined as 3.2 nM.

`CCN1CCCC1CNC(=O)CCCCc1ccc(-c2ccc3c(=O)c(C(=O)NC)c(N)n(CC)c3n2)cc1` (stereo not drawn) [compound 51, 2-amino-1-ethyl-7-[4-(5-{[(1-ethylpyrrolidin-2-yl)methyl]amino}-5-oxopentyl)phenyl]-N-methyl-4-oxo-1,4-dihydro-1,8-naphthyridine-3-carboxamide] had a melting point of 180 °C. In series [2] (setting [5]), the IC50 was found to be 92.7 nM.

(Values after patent US8436011B2, “Pyridinopyridinone derivatives, preparation thereof and therapeutic use thereof” (Sanofi, priority 2008, dated 2013).)
